For assay [1], the target named is T1, PfPFT (Plasmodium falciparum, UniProt Q8I503+Q8IHP6).
T1 sequence (Q8I503 1-521): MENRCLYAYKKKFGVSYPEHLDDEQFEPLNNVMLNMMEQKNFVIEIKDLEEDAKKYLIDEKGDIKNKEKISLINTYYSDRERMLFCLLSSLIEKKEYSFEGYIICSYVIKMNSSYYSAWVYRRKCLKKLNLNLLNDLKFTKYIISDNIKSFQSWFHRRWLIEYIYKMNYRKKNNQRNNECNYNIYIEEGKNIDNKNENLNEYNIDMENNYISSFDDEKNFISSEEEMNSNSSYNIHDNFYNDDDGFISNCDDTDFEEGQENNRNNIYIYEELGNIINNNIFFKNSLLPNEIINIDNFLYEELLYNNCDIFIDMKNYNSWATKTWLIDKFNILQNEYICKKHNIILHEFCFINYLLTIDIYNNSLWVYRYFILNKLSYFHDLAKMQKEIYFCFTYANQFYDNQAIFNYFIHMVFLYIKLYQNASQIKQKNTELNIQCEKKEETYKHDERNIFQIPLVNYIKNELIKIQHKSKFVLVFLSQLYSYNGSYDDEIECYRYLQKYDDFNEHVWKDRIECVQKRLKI
T1 sequence (Q8IHP6 1-923): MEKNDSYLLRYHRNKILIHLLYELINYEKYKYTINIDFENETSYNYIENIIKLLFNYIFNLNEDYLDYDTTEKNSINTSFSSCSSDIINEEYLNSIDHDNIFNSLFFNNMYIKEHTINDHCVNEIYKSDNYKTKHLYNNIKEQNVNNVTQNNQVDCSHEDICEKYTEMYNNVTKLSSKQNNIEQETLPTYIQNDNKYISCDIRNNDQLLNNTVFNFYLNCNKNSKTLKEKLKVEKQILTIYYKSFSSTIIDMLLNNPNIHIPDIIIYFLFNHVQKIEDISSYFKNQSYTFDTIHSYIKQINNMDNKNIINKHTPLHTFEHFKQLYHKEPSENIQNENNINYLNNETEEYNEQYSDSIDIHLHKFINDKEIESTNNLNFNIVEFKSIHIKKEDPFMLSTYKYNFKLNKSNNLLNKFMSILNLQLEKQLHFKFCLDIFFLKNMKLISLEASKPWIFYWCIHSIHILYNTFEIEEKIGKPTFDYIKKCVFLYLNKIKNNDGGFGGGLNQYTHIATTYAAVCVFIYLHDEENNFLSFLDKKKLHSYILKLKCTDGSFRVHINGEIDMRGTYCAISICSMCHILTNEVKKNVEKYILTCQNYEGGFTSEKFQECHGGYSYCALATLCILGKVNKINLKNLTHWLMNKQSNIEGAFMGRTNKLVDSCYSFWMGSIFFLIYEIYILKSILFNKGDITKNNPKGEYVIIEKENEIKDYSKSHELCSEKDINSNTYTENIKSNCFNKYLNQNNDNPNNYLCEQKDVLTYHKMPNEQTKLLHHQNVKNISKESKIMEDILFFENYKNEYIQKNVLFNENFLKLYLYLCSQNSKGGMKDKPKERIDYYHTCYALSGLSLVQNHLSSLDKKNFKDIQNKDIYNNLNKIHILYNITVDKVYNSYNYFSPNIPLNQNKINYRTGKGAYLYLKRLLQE
Description: PfPFT inhibition, scintillation proximity assay with partially purified PfPFT. It counts as biochemical. The following applies: for inhibition at 0.05 µM: read-out: % Inhibition of PfPFT at 50 nM, inhibitor at 50 nM; for inhibition at 0.005 µM: read-out: % Inhibition of PfPFT at 5 nM, inhibitor at 5 nM. (In a scintillation proximity assay essentially only radioactivity close to the scintillant gives light.)

Assay [2] relates to P. falciparum 3D7. Description: P. falciparum ED50 determination, [3H]-hypoxanthine incorporation, strain 3D7. It counts as cell-based, Plasmodium falciparum. The source says:
(§1) Plasmodium strains. The P. falciparum strains used in this study were 3D7 (Netherlands, sensitive) provided by Dr. Pradipsinh Rathod from the University of Washington and K1 (Thailand, ChQ-R, Pyr-R) obtained from the MR4Unit of the American Type Culture Collection (ATCC, Manassas, Va.).
(§2) P. falciparum culture. Strains of P. falciparum were sustained in vitro based on experimental techniques as described by Trager and Jensen.^26 Cultures were maintained in RPMI-1640 (Sigma, St. Louis, […].) with 2 mM L-glutamine, 25 mM HEPES, 33 mM NaHCO3, 20 μg/ml gentamicin sulfate and 20% (v/v) heat-inactivated human plasma type A+ (R^P-20P). Type A+ erythrocytes were obtained from lab donors, washed three times with RPMI, re-suspended in 50% RPMI, and stored at 4° C. Parasites were grown in 10 mL of a 2% hematocrit/RP-20P (v/v) in 50-mL flasks under a 5% CO2, 5% O2, and 90% N2 atmosphere.
(§3) P. falciparum ED50 determination. One […]L of PFTI dissolved in DMSO was added to each well of a 96-well plate followed by the addition of 200 μL of P. falciparum culture at parasitemia and hematocrit of 0.5%. Plates were flushed with 5% CO2, 5% O2, and 90% N2 then incubated at 37° C. for 48 hr. [8-^3H]-hypoxanthine (0.3 μCi, 20 Ci/mmol, American Radiolabeled Chemicals) in 30 μL RP-20P was added to cultures and incubated for an additional 24 hours. Cells were harvested onto filter mats by a Multiharvester (Skatron, Sunnyvale, Calif.) and the radioactivity incorporated into the parasites was counted on a β-scintillation counter. The background level detected with uninfected erythrocytes was subtracted from the data. The ^3H-incorporation into infected RBCs with 1 μL DMSO vehicle alone represents 100% malaria growth. ED50 values were determined by linear regression analysis of the plots of ^3H-hypoxanthine incorporation versus concentration of compound.

For assay [3], the system named is P. falciparum K1. Description: P. falciparum ED50 determination, [3H]-hypoxanthine incorporation, strain K1. The class given is cell-based, Plasmodium falciparum.
From the text: as §1, §2, §3

The mark [4] stands for this setting: Plasmodium falciparum, 3D7, strain 3D7, concentration decreasing hypoxanthine incorporation into parasites twofold, read-out: ED50 3D7.
Where [5] appears, read: Plasmodium falciparum, K1, strain K1, concentration decreasing hypoxanthine incorporation into parasites twofold, read-out: ED50 K1.

Where two headings read alike, the source gives them in different places.

By inhibition is commonly meant the change of the read-out against control, counted positive when it falls. As usually defined, the IC50 is the concentration that inhibits the measured activity by half. Lower therefore signals greater potency in that assay.

Take `Cn1cnc(S(=O)(=O)N(CCN(Cc2cnc[nH]2)c2ccccc2)Cc2ccccc2)c1` [Compound 3c, 1-Methyl-1H-imidazole-4-sulfonic acid benzyl-{2-[(3H-imidazol-4-ylmethyl)-phenyl-amino]-ethyl}-amide]: the inhibition at 0.05 µM in assay [1] worked out at 32%.

For the compound `Cc1ccc(CS(=O)(=O)N(CCN(Cc2cnc[nH]2)c2ccccc2)Cc2ccccc2)cc1` [Compound 3d, N-Benzyl-N-{2-[(3H-imidazol-4-ylmethyl)-phenyl-amino]-ethyl}-C-p-tolyl-methanesulfonamide], the inhibition at 0.05 µM in assay [1] stood at 3%.

As for `O=S(=O)(c1ccc2ccccc2c1)N(CCN(Cc1cnc[nH]1)c1ccccc1)Cc1ccccc1` [Compound 3e, Naphthalene-2-sulfonic acid benzyl-{2-[(3H-imidazol-4-ylmethyl)-phenyl-amino]-ethyl}-amide], the inhibition at 0.05 µM in assay [1] was found to be 0%.

As for `O=S(=O)(c1cccc2cccnc12)N(CCN(Cc1cnc[nH]1)c1ccccc1)Cc1ccccc1` [Compound 3f, Quinoline-8-sulfonic acid benzyl-{2-[(3H-imidazol-4-ylmethyl)-phenyl-amino]-ethyl}-amide], the inhibition at 0.05 µM in assay [1] came to 0%.

`CN(C)c1cccc2c(S(=O)(=O)N(CCN(Cc3cnc[nH]3)c3ccccc3)Cc3ccccc3)cccc12` [Compound 3g, 5-Dimethylamino-naphthalene-1-sulfonic acid benzyl-{2-[(3H-imidazol-4-ylmethyl)-phenyl-amino]-ethyl}-amide]: the inhibition at 0.05 µM in assay [1] was 0%.

`Cn1cnc(S(=O)(=O)N(CCN(Cc2cnc[nH]2)c2ccc(Br)cc2)Cc2ccccc2)c1` [Compound 8a, 1-Methyl-1H-imidazole-4-sulfonic acid benzyl-{2-[(4-bromo-phenyl)-(3H-imidazol-4-ylmethyl)-amino]-ethyl}-amide]: the inhibition at 0.05 µM in assay [1] came out at 80%.

In the case of `Cn1cnc(S(=O)(=O)N(CCN(Cc2cncn2C)c2ccc(C#N)cc2)Cc2cccnc2)c1` [Compound 8ab, 1-Methyl-1H-imidazole-4-sulfonic acid {2-[(4-cyano-phenyl)-(3-methyl-3H-imidazol-4-ylmethyl)-amino]-ethyl}-pyridin-3-ylmethyl-amide], the EC50 in assay [2] (setting [4]) came to 2800 nM. Further, in assay [1], the inhibition at 0.005 µM was determined as 18% and the inhibition at 0.05 µM came out at 74%. In assay [3] (setting [5]), the EC50 is 4250 nM.

Turning to `Cn1cnc(S(=O)(=O)N(CCN(Cc2cncn2C)c2ccc(C#N)cc2)Cc2ccncc2)c1` [Compound 8ac, 1-Methyl-1H-imidazole-4-sulfonic acid {2-[(4-cyano-phenyl)-(3-methyl-3H-imidazol-4-ylmethyl)-amino]-ethyl}-pyridin-4-ylmethyl-amide], the EC50 in assay [2] (setting [4]) is 3700 nM. Besides, in assay [1], the inhibition at 0.005 µM worked out at 22% and the inhibition at 0.05 µM was 62%. Further, the EC50 in assay [3] (setting [5]) is 5000 nM.

As for `Cn1cnc(S(=O)(=O)N(CCN(Cc2cncn2C)c2ccc(C#N)cc2)Cc2cccc(C#N)c2)c1` [Compound 8ad, 1-Methyl-1H-imidazole-4-sulfonic acid (3-cyano-benzyl)-{2-[(4-cyano-phenyl)-(3-methyl-3H-imidazol-4-ylmethyl)-amino]-ethyl}-amidem-cyanobenzyl], the EC50 in assay [2] (strain 3D7, concentration decreasing hypoxanthine incorporation into parasites twofold, read-out: ED50 3D7) worked out at 350 nM; in assay [3] (strain K1, concentration decreasing hypoxanthine incorporation into parasites twofold, read-out: ED50 K1), 1800 nM. Further, the “% Inhibition of PfPFT at 5 nM” value in assay [1] (inhibitor at 5 nM) turned out to be 45%. The “% Inhibition of PfPFT at 50 nM” value in assay [1] (inhibitor at 50 nM) is recorded as 89%.

For the compound `Cn1cnc(S(=O)(=O)N(CCN(Cc2cncn2C)c2ccc(C#N)cc2)Cc2cccc(-c3ccccc3)c2)c1` [Compound 8af, 1-Methyl-1H-imidazole-4-sulfonic acid biphenyl-3-ylmethyl-{2-[(4-cyano-phenyl)-(3-methyl-3H-imidazol-4-ylmethyl)-amino]-ethyl}-amide], the EC50 in assay [2] (setting [4]) was determined as 2400 nM. Also, in assay [1], the inhibition at 0.005 µM is 56% and the inhibition at 0.05 µM is 93%. In assay [3] (setting [5]), the EC50 came to 3250 nM.

Consider `Cn1cnc(S(=O)(=O)N(CCN(Cc2cncn2C)c2ccc(C#N)cc2)Cc2ccc(-n3cccc3)cc2)c1` [Compound 8ai, 1-Methyl-1H-imidazole-4-sulfonic acid {2-[(4-cyano-phenyl)-(3-methyl-3H-imidazol-4-ylmethyl)-amino]-ethyl}-(4-pyrrol-1-yl-benzyl)-amide], for which the EC50 in assay [2] (setting [4]) is 257 nM. It took 11 nM to reach half-maximal inhibition in assay [1] (concentration decreasing transferase activity twofold) (IC50). In assay [1], the inhibition at 0.005 µM worked out at 39% and the inhibition at 0.05 µM came out at 85%. Also, the EC50 in assay [3] (setting [5]) turned out to be 410 nM.

`Cn1cncc1CN(CCN(Cc1ccccc1)S(=O)(=O)c1cccs1)c1ccc(C#N)cc1` [Compound 8f, Thiophene-2-sulfonic acid benzyl-{2-[(4-cyano-phenyl)-(3-methyl-3H-imidazol-4-ylmethyl)-amino]-ethyl}-amide]: the EC50 in assay [2] (setting [4]) came to 550 nM. In addition, in assay [1], the inhibition at 0.005 µM was 17% and the inhibition at 0.05 µM was found to be 74%. Moreover, the EC50 in assay [3] (setting [5]) was determined as 1120 nM.

As to `Cn1cncc1CN(CCN(Cc1ccccc1)S(=O)(=O)c1cccc2cccnc12)c1ccc(C#N)cc1` [Compound 8h, Quinoline-8-sulfonic acid benzyl-{2-[(4-cyano-phenyl)-(3-methyl-3H-imidazol-4-ylmethyl)-amino]-ethyl}-amide], the EC50 in assay [2] (setting [4]) came out at 2100 nM; in assay [3] (setting [5]), 2400 nM. The inhibition at 0.005 µM in assay [1] came to 14%. Besides, the inhibition at 0.05 µM in assay [1] was 35%.

In the case of `CC(=O)N(CCN(Cc1cncn1C)c1ccc(C#N)cc1)Cc1ccccc1` [Compound 8j, N-Benzyl-N-{2-[(4-cyano-phenyl)-(3-methyl-3H-imidazol-4-ylmethyl)-amino]-ethyl}-acetamide], the EC50 is 2500 nM in assay [2] (Plasmodium falciparum, 3D7, read-out: ED50 3D7) and over 5000 nM in assay [3] (Plasmodium falciparum, K1, read-out: ED50 K1). In addition, in assay [1], the inhibition at 0.005 µM came to 0%. Besides, the inhibition at 0.05 µM in assay [1] stood at 56%.

For `CC(C)C(=O)N(CCN(Cc1cncn1C)c1ccc(C#N)cc1)Cc1ccccc1` [Compound 8k, N-Benzyl-N-{2-[(4-cyano-phenyl)-(3-methyl-3H-imidazol-4-ylmethyl)-amino]-ethyl}-isobutyramide], the EC50 in assay [2] (setting [4]) was determined as 2000 nM. In assay [1], the inhibition at 0.005 µM worked out at 0% and the inhibition at 0.05 µM was 61%. For the same compound, the EC50 in assay [3] (setting [5]) was over 5000 nM.

Source of the values: patent US20080312287A1, “Compound and Methods For the Treatment of Cancer and Malaria” (University of Washington, priority 2005, published 2008).
